Here are results for two compounds from PMC7859440, “Transporter Gene Regulation in Sandwich Cultured Human Hepatocytes Through the Activation of Constitutive Androstane Receptor (CAR) or Aryl Hydrocarbon Receptor (AhR)” (Frontiers in Pharmacology, 2021).

Where “and” joins values, the source holds several entries; their conditions need not be identical. Equal values may be shown once.

Data set [1] concerns CYP1A2. Conditions: SCHH, 72 h; TCDD 50 nM, OP 50 µM, CITCO 5 µM, PB 1,000 µM (highest conc.); mean ± SD, three donors. On the procedure: (§1) Cryopreserved human hepatocytes were quickly thawed at 37°C and then transferred into hepatocyte thawing medium. Cells were pelleted at 100 × g for 10 min and then resuspended in hepatocyte complete plating medium (CP medium). The cells were then seeded at 65,000 cells per well in 96-well collagen I coated plates. After cell attachment (4–6 h post-seeding), CP medium was exchanged for ice-cold complete incubation medium (HI medium) containing BD Matrigel™ at the concentration of 0.25 mg/ml. The cells were then incubated overnight at 37°C in a humidified 5% CO2 incubator. […] Cell death or loss of adhesion of hepatocytes during or after treatment were examined by microscopy.
A RNeasy 96 Kit (Qiagen) was used to extract the total cellular RNA from sandwich cultured hepatocytes in 96-well plates following the manufacturer's instructions. A total volume of 200 μL RNA was obtained via the column elution provided in the RNeasy kit. […] Gene expression for each condition is expressed as a fold-change of mean ± standard deviation (SD) from three independent donors (each performed in triplicate). […]

Data set [2] deals with CYP2B6. Kind of data set: in vitro. Conditions: human. Here is the method:
as §1
(§2) A RNeasy 96 Kit (Qiagen) was used to extract the total cellular RNA from sandwich cultured hepatocytes in 96-well plates following the manufacturer's instructions. A total volume of 200 μL RNA was obtained via the column elution provided in the RNeasy kit. Five μL RNA extraction was mixed with TaqMan® Fast Virus 1-Step Master Mix (Life Technologies) in a final reaction volume of 20 μL and qRT-PCR was achieved using a QuantStudio 6 Flex Real-Time PCR System (Life Technologies), following the manufacturer's instructions. β-actin mRNA expression in the SCHH was used as a house-keeping gene for the normalization of target gene expressions. The mRNA levels in SCHH treated with AhR or CAR activators were expressed by a fold change, compared to the gene expressions without the treatment. […] Gene expression for each condition is expressed as a fold-change of mean ± standard deviation (SD) from three independent donors (each performed in triplicate). All primer and probe sets were purchased from Life Technologies (Table 2). When concentration-dependent induction observed, the in vitro induction mRNA data were fitted using the sigmoid 3-parameter equation in GraphPad Prism (La Jolla, CA) to estimate the in vitro concentration of inducer that produced half the maximum induction values (EC50).

The test system of data set [3] is CYP3A4. Kind of data set: in vitro. Conditions: human. Here is the method: as §1, §2
The test system of data set [4] is UGT1A1. Kind of data set: gene induction in sandwich-cultured human hepatocytes (qRT-PCR). Here is the method:
as §1
(§3) A RNeasy 96 Kit (Qiagen) was used to extract the total cellular RNA from sandwich cultured hepatocytes in 96-well plates following the manufacturer's instructions. A total volume of 200 μL RNA was obtained via the column elution provided in the RNeasy kit. Five μL RNA extraction was mixed with TaqMan® Fast Virus 1-Step Master Mix (Life Technologies) in a final reaction volume of 20 μL and qRT-PCR was achieved using a QuantStudio 6 Flex Real-Time PCR System (Life Technologies), following the manufacturer's instructions. β-actin mRNA expression in the SCHH was used as a house-keeping gene for the normalization of target gene expressions. The mRNA levels in SCHH treated with AhR or CAR activators were expressed by a fold change, compared to the gene expressions without the treatment. The 2^−ΔΔCt method ([Livak and Schmittgen, 2001]) was used to analyze the relative changes in gene expression, where the Ct is the cycle number at which the fluorescence in the reaction crosses the preset arbitrary threshold; the ΔCt represents the difference between the Ct target and reference and the ΔΔCt is the difference between the ΔCt of the test and the ΔCt of the preassigned control. Gene expression for each condition is expressed as a fold-change of mean ± standard deviation (SD) from three independent donors (each performed in triplicate). All primer and probe sets were purchased from Life Technologies (Table 2). When concentration-dependent induction observed, the in vitro induction mRNA data were fitted using the sigmoid 3-parameter equation in GraphPad Prism (La Jolla, CA) to estimate the in vitro concentration of inducer that produced half the maximum induction values (EC50).

Data set [5] has as its system ABCB1 (MDR1). The data set is described as above. It is filed as cell-based. Here is the method:
as §1, §3

The test system of data set [6] is ABCB11 (BSEP). The description is as above. The data set is classed as cell-based. Here is the method:
as §1, §3

Data set [7] deals with ABCC2 (MRP2). Described as above. The data set is classed as cell-based. Here is the method: as §1, §3
Data set [8] has as its system ABCC3 (MRP3). The description is as above. The data set is classed as cell-based. Here is the method: as §1, §3
The subject of data set [9] is ABCC4 (MRP4). The data set is described as above. It is filed as cell-based. On the procedure:
as §1, §3

In data set [10] the test system is ABCC5 (MRP5). The description is as above. It is filed as cell-based. On the procedure:
as §1, §3

For data set [11], the system named is ABCC6 (MRP6). The description is as above. The data set is classed as cell-based. Here is the method:
as §1, §3

Data set [12] concerns ABCG2 (BCRP). The data set is described as above. The data set is classed as cell-based. Here is the method: as §1, §3
Data set [13] concerns SLC22A1 (OCT1). The description is as above. It is filed as cell-based. On the procedure:
as §1, §3

The subject of data set [14] is SLCO1B1 (OATP1B1). Described as above. The data set is classed as cell-based. Here is the method:
as §1, §3

Data set [15] deals with SLCO1B3 (OATP1B3). The description is as above. The data set is classed as cell-based. Here is the method: as §1, §3
In data set [16] the test system is SLCO2B1 (OATP2B1). Described as above. The data set is classed as cell-based. On the procedure:
as §1, §3

Data set [17] has as its system SLC10A1 (NTCP). The description is as above. The data set is classed as cell-based. Conditions: SCHH, 72 h; TCDD 50 nM, OP 50 µM, CITCO 5 µM, PB 1,000 µM (highest conc.); mean ± SD, three donors.
Protocol: A RNeasy 96 Kit (Qiagen) was used to extract the total cellular RNA from sandwich cultured hepatocytes in 96-well plates following the manufacturer's instructions. A total volume of 200 μL RNA was obtained via the column elution provided in the RNeasy kit. Five μL RNA extraction was mixed with TaqMan® Fast Virus 1-Step Master Mix (Life Technologies) in a final reaction volume of 20 μL and qRT-PCR was achieved using a QuantStudio 6 Flex Real-Time PCR System (Life Technologies), following the manufacturer's instructions. β-actin mRNA expression in the SCHH was used as a house-keeping gene for the normalization of target gene expressions. The mRNA levels in SCHH treated with AhR or CAR activators were expressed by a fold change, compared to the gene expressions without the treatment. The 2^−ΔΔCt method ([Livak and Schmittgen, 2001]) was used to analyze the relative changes in gene expression, where the Ct is the cycle number at which the fluorescence in the reaction crosses the preset arbitrary threshold; the ΔCt represents the difference between the Ct target and reference and the ΔΔCt is the difference between the ΔCt of the test and the ΔCt of the preassigned control. Gene expression for each condition is expressed as a fold-change of mean ± standard deviation (SD) from three independent donors (each performed in triplicate). […] When concentration-dependent induction observed, the in vitro induction mRNA data were fitted using the sigmoid 3-parameter equation in GraphPad Prism (La Jolla, CA) to estimate the in vitro concentration of inducer that produced half the maximum induction values (EC50).
For data set [18], the system named is SLC15A1 (PEPT1). Described as above. Conditions: SCHH, 72 h; TCDD 50 nM, OP 50 µM, CITCO 5 µM, PB 1,000 µM (highest conc.); mean ± SD, three donors. It is filed as cell-based.
Description: (§4) A RNeasy 96 Kit (Qiagen) was used to extract the total cellular RNA from sandwich cultured hepatocytes in 96-well plates following the manufacturer's instructions. […] The 2^−ΔΔCt method ([Livak and Schmittgen, 2001]) was used to analyze the relative changes in gene expression, where the Ct is the cycle number at which the fluorescence in the reaction crosses the preset arbitrary threshold; the ΔCt represents the difference between the Ct target and reference and the ΔΔCt is the difference between the ΔCt of the test and the ΔCt of the preassigned control. Gene expression for each condition is expressed as a fold-change of mean ± standard deviation (SD) from three independent donors (each performed in triplicate). […]
Data set [19] has as its system SLC16A1 (MCT1). Described as above. The data set is classed as cell-based. Conditions: SCHH, 72 h; TCDD 50 nM, OP 50 µM, CITCO 5 µM, PB 1,000 µM (highest conc.); mean ± SD, three donors.
Description: as §4
Data set [20] has as its system SLC22A7 (OAT2). The description is as above. The data set is classed as cell-based. Conditions: SCHH, 72 h; TCDD 50 nM, OP 50 µM, CITCO 5 µM, PB 1,000 µM (highest conc.); mean ± SD, three donors.
Description: as §4
Data set [21] has as its system SLC22A9 (OAT7). The data set is described as above. It is filed as cell-based. Conditions: SCHH, 72 h; TCDD 50 nM, OP 50 µM, CITCO 5 µM, PB 1,000 µM (highest conc.); mean ± SD, three donors.
Description: as §4
The test system of data set [22] is SLC22A5 (OCTN2). Described as above. The data set is classed as cell-based. Conditions: SCHH, 72 h; TCDD 50 nM, OP 50 µM, CITCO 5 µM, PB 1,000 µM (highest conc.); mean ± SD, three donors.
Description: as §4
Data set [23] relates to SLC29A1 (ENT1). The description is as above. The data set is classed as cell-based. Conditions: SCHH, 72 h; TCDD 50 nM, OP 50 µM, CITCO 5 µM, PB 1,000 µM (highest conc.); mean ± SD, three donors.
Description: as §4
In data set [24] the test system is SLC29A2 (ENT2). Described as above. Conditions: SCHH, 72 h; TCDD 50 nM, OP 50 µM, CITCO 5 µM, PB 1,000 µM (highest conc.); mean ± SD, three donors. It is filed as cell-based.
Description: as §4
In data set [25] the test system is SLC51A (OSTα). The data set is described as above. It is filed as cell-based. Conditions: SCHH, 72 h; TCDD 50 nM, OP 50 µM, CITCO 5 µM, PB 1,000 µM (highest conc.); mean ± SD, three donors.
Description: as §4
Data set [26] concerns SLC51B. Also on record: method as in Niu et al., 2019. Conditions: rifampin (PXR ligand), human and monkey hepatocytes; ref Niu et al., 2019; cited from earlier work.

As usually defined, the EC50 is the midpoint of the concentration-response curve. Consider `CCC1(c2ccccc2)C(=O)NC(=O)NC1=O` [PB, phenobarbital], for which, in [1], the “CYP1A2 mRNA fold change” value was 1.3 ± 0.4 fold. In data set [2], the midpoint of the response, the EC50 at 72 h, lay at 726 ± 655 µM. The results for the EC50 in data set [3] and in data set [4] (human) were 343 µM and 639 ± 444 µM, respectively. In addition, the “UGT1A1 mRNA fold change” value in data set [4] is 4.2 fold and 4.2 ± 1.9 fold. Further, the “ABCB1 (MDR1) mRNA fold change” value in [5] worked out at 1.3 ± 0.6 fold. In addition, the “ABCB11 (BSEP) mRNA fold change” value in data set [6] is listed as 1.1 ± 0.3 fold. Moreover, the “ABCC2 (MRP2) mRNA fold change” value in data set [7] is given as 1.5 ± 0.3 fold. In addition, the “ABCC3 (MRP3) mRNA fold change” value in [8] stood at 1.0 ± 0.4 fold. In addition, the “ABCC4 (MRP4) mRNA fold change” value in data set [9] is given as 1.8 ± 0.4 fold. Also, in [10], the “ABCC5 (MRP5) mRNA fold change” value is on record as 1.2 ± 0.4 fold. Moreover, in data set [11], the “ABCC6 (MRP6) mRNA fold change” value amounted to 1.3 ± 0.3 fold. In addition, the “ABCG2 (BCRP) mRNA fold change” value in data set [12] turned out to be 1.6 ± 0.3 fold. Moreover, the “SLC22A1 (OCT1) mRNA fold change” value in [13] is 1.5 ± 0.6 fold. In data set [14], the “SLCO1B1 (OATP1B1) mRNA fold change” value is 1.5 ± 0.8 fold. The “SLCO1B3 (OATP1B3) mRNA fold change” value in [15] is listed as 0.9 ± 0.2 fold. Also, the “SLCO2B1 (OATP2B1) mRNA fold change” value in [16] is listed as 1.8 ± 0.9 fold. Further, the “SLC10A1 (NTCP) mRNA fold change” value in data set [17] amounted to 1.4 ± 0.7 fold. In addition, in data set [18], the “SLC15A1 (PEPT1) mRNA fold change” value came out at 1.1 ± 0.5 fold. The “SLC16A1 (MCT1) mRNA fold change” value in data set [19] was 1.1 ± 0.2 fold. Moreover, the “SLC22A7 (OAT2) mRNA fold change” value in data set [20] worked out at 0.5 ± 0.2 fold. The “SLC22A9 (OAT7) mRNA fold change” value in data set [21] turned out to be 0.6 ± 0.2 fold. The “SLC22A5 (OCTN2) mRNA fold change” value in data set [22] is 0.8 ± 0.3 fold. Also, the “SLC29A1 (ENT1) mRNA fold change” value in data set [23] was 0.9 ± 0.2 fold. Also, the “SLC29A2 (ENT2) mRNA fold change” value in [24] is 0.9 ± 0.3 fold. For the same compound, the “SLC51A (OSTα) mRNA fold change” value in [25] was 0.9 ± 0.2 fold.

With `CO[C@H]1/C=C/O[C@@]2(C)Oc3c(C)c(O)c4c(O)c(c(/C=N/N5CCN(C)CC5)c(O)c4c3C2=O)NC(=O)/C(C)=C\C=C\[C@H](C)[C@H](O)[C@@H](C)[C@@H](O)[C@@H](C)[C@H](OC(C)=O)[C@@H]1C` [rifampin], the SLC51B induction entry in data set [26] is given as “greater than 10 fold”.
